Drawing on BindingDB's records for doi:10.7270/Q2ZG6QNM (University of Pittsburgh, 2008), this text covers IC50 for 18 compounds.

Molecules are shown by their SMILES.

For this test, the target named is T1, Serine/threonine-protein kinase D1 (Homo sapiens, UniProt Q15139).
T1 sequence (Q15139 whole entry): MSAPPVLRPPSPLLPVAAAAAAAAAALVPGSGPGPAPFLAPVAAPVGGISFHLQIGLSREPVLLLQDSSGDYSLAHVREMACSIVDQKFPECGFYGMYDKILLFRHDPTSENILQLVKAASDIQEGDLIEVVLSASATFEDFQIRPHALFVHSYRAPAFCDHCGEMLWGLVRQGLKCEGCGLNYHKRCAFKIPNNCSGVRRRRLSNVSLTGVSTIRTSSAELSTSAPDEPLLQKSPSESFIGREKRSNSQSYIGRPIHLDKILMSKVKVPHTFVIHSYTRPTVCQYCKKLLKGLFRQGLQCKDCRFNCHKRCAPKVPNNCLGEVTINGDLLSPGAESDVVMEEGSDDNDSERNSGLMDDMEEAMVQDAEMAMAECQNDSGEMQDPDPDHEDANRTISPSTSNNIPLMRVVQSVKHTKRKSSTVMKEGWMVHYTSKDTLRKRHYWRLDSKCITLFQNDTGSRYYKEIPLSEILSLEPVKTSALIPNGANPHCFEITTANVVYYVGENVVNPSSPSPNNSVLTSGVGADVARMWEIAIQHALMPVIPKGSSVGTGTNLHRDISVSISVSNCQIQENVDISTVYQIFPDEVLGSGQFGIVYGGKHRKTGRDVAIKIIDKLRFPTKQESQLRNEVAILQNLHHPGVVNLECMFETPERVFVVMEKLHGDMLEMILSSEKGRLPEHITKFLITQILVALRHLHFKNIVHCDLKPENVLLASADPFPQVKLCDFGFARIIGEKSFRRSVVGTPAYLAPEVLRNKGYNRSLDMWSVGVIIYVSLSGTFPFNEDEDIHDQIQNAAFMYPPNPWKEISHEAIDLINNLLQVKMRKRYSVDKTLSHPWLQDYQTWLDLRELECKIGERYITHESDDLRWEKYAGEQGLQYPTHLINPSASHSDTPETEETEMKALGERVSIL
The test is described as follows: fluorescence polarization artefacts, biochemical, 57K campaign, artefact control, dose response (AID 1342). (Polarisation of emitted light reports the rotation of a fluorescent probe.)

For orientation: IC50 means the concentration at which inhibition is half-maximal. Read a low IC50 as greater potency in that assay. `O=C(Nc1ccccc1C(=O)N1CCCC1)C1COc2ccccc2O1` (stereo not drawn) [SMR000287780] showed a concentration for half-maximal inhibition (IC50) above 50 µM.
Next, `O=C1CSCN1c1cc(Cl)ccc1Cl` [3-(2,5-dichlorophenyl)-1,3-thiazolan-4-one]: above 50 µM; `COc1ccc(CNC(=O)C2Cc3ccccc3CN2C(=O)c2ccco2)cc1` (stereo not drawn) [SMR000343177]: above 50 µM.
Then `COC(=O)c1c(NC(=O)C2C3CCC(C3)C2C(=O)O)sc2c1CCCCC2` (stereo not drawn) [SMR000298221], with above 50 µM; and `CC(N=Nc1ncc(Cl)cc1Cl)c1ccccn1` (stereo not drawn) [3,5-dichloro-N-(1-pyridin-2-ylethylideneamino)pyridin-2-amine], with 16.7 µM.
Take `O=C(NNC1=Nc2cccc3cccc1c23)c1ccc(Br)cc1` [SMR000260645]: the 50% inhibitory concentration (IC50) was above 50 µM.
In turn, `O=C(CSc1ccc2nnc(-c3cccnc3)n2n1)c1ccccc1` [1-phenyl-2-[[3-(3-pyridinyl)-[1,2,4]triazolo[4,3-b]pyridazin-6-yl]thio]ethanone] showed a concentration for half-maximal inhibition (IC50) above 50 µM.
Next, `Cc1cc(NC(=O)CCC(=O)N(Cc2ccco2)C(C(=O)NCC2CCCO2)c2ccncc2)no1` (stereo not drawn) [N'-(furan-2-ylmethyl)-N-(5-methyl-1,2-oxazol-3-yl)-N'-[2-oxidanylidene-2-(oxolan-2-ylmethylamino)-1-pyridin-4-yl-ethyl]butanediamide]: above 50 µM; `CCOC(=O)c1sc(=NC(=O)CCS(=O)(=O)c2ccccc2)n(C)c1C` [2-[3-(benzenesulfonyl)-1-oxopropyl]imino-3,4-dimethyl-5-thiazolecarboxylic acid ethyl ester]: above 50 µM.
`O=C(CSc1ccncc1)Nc1ccc2ccccc2c1` [N-naphthalen-2-yl-2-pyridin-4-ylsulfanylacetamide] registered a 50% inhibitory concentration (IC50) above 50 µM.
Then `CCCc1cc(=O)[nH]c(SCCCCN2C(=O)c3ccccc3C2=O)n1` [2-[4-[(4-oxidanylidene-6-propyl-1H-pyrimidin-2-yl)sulfanyl]butyl]isoindole-1,3-dione], with above 50 µM.
The compound `CSc1ccccc1C(=O)NCc1ccc(F)cc1` showed an IC50 above 50 µM.
Compound `CC1Cc2ccccc2N1c1ncnc(N)c1[N+](=O)[O-]` (stereo not drawn) [6-(2-methyl-2,3-dihydro-1H-indol-1-yl)-5-nitro-4-pyrimidinamine] gave an IC50 above 50 µM.
Then `O=[N+]([O-])c1ccc(Nc2c3ccccc3nc3ccccc23)cc1` [MLS000723809], with above 50 µM; and `O=C(O)c1cc(C(=O)C2CCCCC2)c[nH]1` [4-(cyclohexylcarbonyl)-1H-pyrrole-2-carboxylic acid], with above 50 µM; and `Cn1cccc1C(=O)NC(=O)COC(=O)c1cc(S(=O)(=O)N2CCCCC2)ccc1Cl` [[2-[(1-methylpyrrol-2-yl)carbonylamino]-2-oxidanylidene-ethyl] 2-chloranyl-5-piperidin-1-ylsulfonyl-benzoate], with above 50 µM.
Consider `COc1ccc(Cn2c(=O)[nH]c3cc(C(=O)NC4CCCC4)ccc3c2=O)cc1` [MLS000730065], for which the IC50 was above 50 µM.
Turning to `Cc1c(C#N)c(N)nc(Cl)c1C#N` [2-amino-6-chloro-4-methyl-3,5-pyridinedicarbonitrile], the IC50 is above 50 µM.
